Tests used:
[1] = test system: panel of approximately 60 different human tumor cell lines; assay: National Cancer Institute drug screen, mean-graph parameters; format: cell-based; details: mean over cell line panel, two days exposure; for GI50: Homo sapiens, 48 h, read-out: Tumor Cell Mean log GI50 (converted)
Outline: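 About 60 human tumour cell lines in eight histology subpanels were exposed continuously to a concentration range for two days. GI50 (50% growth decrease versus untreated control), TGI (cell number equal to start) and LC50 (50% reduction versus start) were derived per cell line and summarised as mean-graph negative log10 values.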

[2] = test system: minimum of 12 human cancer cell lines; assay: Hollow fiber assay in mice, point score; format: in vivo; details: for Hollow Fiber Assay IP score: first number of cell; for Hollow Fiber Assay SC score: second number of cell
Experimental: Compounds satisfying Formulas 1 and 2 also have been tested for in vivo activity in the hollow fiber assay. See Example 12 below for the procedure used for the in vivo tests. Each compound tested was tested against a minimum of 12 human cancer cell lines. Data is reported as % T/C (i.e., the […]) for each of the 2 compound doses against each of the cell lines with separate values calculated for the intraperitoneal and subcutaneous samples, with a target value for % T/C being about 50 or less.
Compounds were selected for further in vivo testing in standard subcutaneous xenograft models on the basis of several hollow fiber assay criteria. These criteria include: (1) a % T/C of 50 or less in 10 of the 48 possible test combinations (12 cell lines×2 sites×2 compound doses); (2) activity at a distance (intrapentoneal drug/subcutaneous culture) in a minimum of 4 of the 24 possible combinations; and/or (3) a net cell kill of 1 or more cell lines in either implant site. To simplify evaluation, a point system has been adopted which allows rapid assessment of a compound's activity. A value of 2 is assigned for each compound dose which results in a 50% or greater reduction in viable cell mass. The intraperitoneal and subcutaneous samples were scored separately so that criteria (1) and (2) could be evaluated. Compounds with a combined IP+SC score≧20, an SC score≧8, or a net cell kill of one or more cell lines were referred for xenograft testing. These criteria have been statistically validated by comparing the activity outcomes of greater than 80 randomly selected compounds in the hollow fiber assay and in the xenograft testing.
This example describes the method used for in vivo testing of mice. Human cancer cells were cultivated in polyvinylidene fluoride (PVDF) hollow fibers. A sample of each cancer cell line was implanted intraperitoneally and subcutaneously in mice. Each mouse received a total of 6 fibers, 3 intraperitoneally and 3 subcutaneously, representing 3 distinct cancer cell lines. Three mice were treated with compounds made according to the present invention at each of two test doses intraperitoneally using a QD×4 treatment schedule. Vehicle controls consisted of 6 mice receiving the compound diluent only The fiber cultures were collected on the day following the last treatment. Anticancer effects were assessed by determining viable cell mass for each of the coil line using a formazan dye (MTT) conversion assay. From this, the % TIC was calculated using the average optical density of the compound-treated samples divided by the average optical density of the vehicle controls. In addition, the net increase in cell mass was determined for each sample as samples of fiber cultures were assessed for viable cell mass on the day of implantation into mice. This allowed cytostatic and cytocidal capacities of these compounds to be assessed.

[3] = Table 8, intraperitoneal fibers

Structure (SMILES) | GI50 ([1]; Table 10) [µM] | Tumor Cell Mean log TGI ([1]; Table 10) | Hollow Fiber Assay IP score ([2]; Table 10) | Hollow Fiber Assay SC score ([2]; Table 10) | Hollow Fiber Assay Total Ip and SC Score ([2]; Table 10) | Tumor Cell Mean log GI50 ([1]; Table 8) | Tumor Cell Mean log TGI ([1]; Table 8) | Hollow Fiber Assay IP score [2, 3] | Hollow Fiber Assay SC score ([2]; Table 8, subcutaneous fibers) | Hollow Fiber Assay Total Ip and SC Score ([2]; Table 8) | IP+SC score ([2]; hollow fiber assay) | SC score ([2]; hollow fiber assay) | Tumor Cell Mean log GI50 ([1]; Table 10)
COC(=O)c1ccc(C=Cc2cc(O)ccc2O)cc1 [COOCH3 / 2,5-dihydoxyphenyl / CH═CH / H] | 3.31 | −4.81 | 2 | 4 | 6 | – | – | – | – | – | – | – | –
COC(=O)c1ccc(CCC2=CC(=O)C(Br)=CC2=O)cc1 | 14.1 | −4.43 | 0 + 0 = 0 | 0 + 0 = 0 | 0 + 0 = 0 | – | – | – | – | – | – | – | –
CC(C)OC(=O)c1ccc(NCc2cc(O)ccc2O)cc1 [COOCH(CH3)2 / H / H] | – | – | – | – | – | −5.52 | −4.84 | 4 | 6 | 10 | – | – | –
O=C(OCC12CC3CC(CC(C3)C1)C2)c1ccc(NCc2cc(O)ccc2O)cc1 [Compound 7, 4′-4′-adamantylmethylbenzoate-1′-N-2,5-dihydroxybenzylamine] | – | – | – | – | – | −5.89 | −5.09 | 12 | 8 | 20 | 20 | 8 | –
O=C(OCc1ccccc1)c1ccc(NCc2cc(O)ccc2O)cc1 [COOCH2Ph / H / H] | – | – | – | – | – | −5.85 | −5.35 | 6 | 2 | 8 | – | – | –
CC(C)OC(=O)c1ccc(CCC2=CC(=O)C=CC2=O)cc1 [COOCH(CH3)2 / 2,5-quinoyl / CH2—CH2 / H] | – | −4.58 | 0 + 0 = 0 | 0 + 0 = 0 | 0 + 0 = 0 | – | – | – | – | – | – | – | −5.05
COC(=O)c1ccc(/C=C/C2=CC(=O)C=CC2=O)cc1 [COOCH3 / 2,5-quinoyl / CH═CH / H] | – | −4.40 | 2 | 0 | 2 | – | – | – | – | – | – | – | −4.86
